Source: US20100292325A1, “P-MENTHAWE-3-CARBOXYLIC ACID ESTERS TO TREAT AIRWAYS DISEASES” (priority 2007, published 2010)

What was measured:
skin = conditions: in vivo; cited from earlier work
TRP-M8 = TRP-M8 (Homo sapiens, UniProt Q7Z2W7); conditions: cited from earlier work
[1] = test system: oropharynx (back of the mouth); assay: Bioassay: compound applied by glass rod onto the posterior dorsal tongue, oral sensations noted; assay type: in vivo, human; conditions: for sensation from the oral cavity: 2 mg on the posterior third of the tongue; for cooling qualities: in vivo
Experimental: CPS-004 and CPS-030 are liquids at room temperatures. These compounds were tested by placing 0, 2, 5 and 8 mg on a 6-inch glass rod and applying these compounds onto the posterior third of the dorsal surface of the tongue. After depositing the test substance, the subject was instructed to keep the mouth closed and allow the test substance to distribute to the back of the mouth (orpharynx). The presence and duration of sensations from the oral cavity was then noted.

Chain of TRP-M8 (Q7Z2W7 whole entry, species assumed): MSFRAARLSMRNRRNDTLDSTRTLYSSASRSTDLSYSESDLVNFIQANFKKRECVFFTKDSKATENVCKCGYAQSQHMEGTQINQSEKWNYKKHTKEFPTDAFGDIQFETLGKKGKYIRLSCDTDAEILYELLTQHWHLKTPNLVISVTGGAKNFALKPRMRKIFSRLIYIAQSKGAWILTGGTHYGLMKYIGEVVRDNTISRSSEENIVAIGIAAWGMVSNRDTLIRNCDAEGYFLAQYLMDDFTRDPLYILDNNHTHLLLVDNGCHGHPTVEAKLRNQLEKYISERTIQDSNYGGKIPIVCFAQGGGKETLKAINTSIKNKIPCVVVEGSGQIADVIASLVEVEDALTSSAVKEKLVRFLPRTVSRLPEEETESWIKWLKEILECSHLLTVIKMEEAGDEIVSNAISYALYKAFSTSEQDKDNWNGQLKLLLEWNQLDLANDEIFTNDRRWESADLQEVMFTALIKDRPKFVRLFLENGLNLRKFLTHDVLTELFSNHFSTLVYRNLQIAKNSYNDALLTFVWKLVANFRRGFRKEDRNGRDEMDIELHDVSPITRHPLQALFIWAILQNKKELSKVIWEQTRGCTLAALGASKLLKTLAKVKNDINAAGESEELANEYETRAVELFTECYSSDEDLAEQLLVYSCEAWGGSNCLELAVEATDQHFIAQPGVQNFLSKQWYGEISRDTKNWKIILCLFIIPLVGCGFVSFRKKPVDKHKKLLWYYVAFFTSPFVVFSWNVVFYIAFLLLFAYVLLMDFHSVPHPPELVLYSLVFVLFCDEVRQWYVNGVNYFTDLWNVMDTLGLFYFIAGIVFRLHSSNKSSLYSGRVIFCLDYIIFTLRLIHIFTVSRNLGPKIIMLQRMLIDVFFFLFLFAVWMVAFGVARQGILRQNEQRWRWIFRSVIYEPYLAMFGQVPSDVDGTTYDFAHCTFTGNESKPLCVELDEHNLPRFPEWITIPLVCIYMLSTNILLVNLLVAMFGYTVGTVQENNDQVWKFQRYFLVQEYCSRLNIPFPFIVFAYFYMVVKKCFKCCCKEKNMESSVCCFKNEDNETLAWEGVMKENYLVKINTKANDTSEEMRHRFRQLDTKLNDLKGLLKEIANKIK

| taste ([1]; applied onto the tongue) | Structure (SMILES) | cooling action on the skin (skin) | potency on TRP-M8 relative to menthol (TRP-M8) | sensation from the oral cavity [1] | cooling qualities [1] |
| --- | --- | --- | --- | --- | --- |
| – | COc1ccc(NC(=O)[C@@H]2C[C@H](C)CC[C@H]2C(C)C)cc1 [WS-12] | does not produce very much cooling action on the skin | 2000 times | – | – |
| acrid taste which was objectionable | CC(C)[C@@H]1CC[C@@H](C)C[C@H]1C(=O)OCC(O)CO (stereo partly shown) [CPS-030] | – | – | cooling effect on the back of the mouth | good cooling qualities |
| – | CC(C)[C@@H]1CC[C@@H](C)C[C@H]1C(=O)OCCO [CPS-004] | – | – | cooling effect on the back of the mouth | good cooling qualities |
